Biological target: T1, 5-HT1A recognition sites (Rattus norvegicus, UniProt P19327)
T1 construct: Tissues from 4-8 rats are pooled and homogenized in 70 vol Tris-HCl buffer; from tissue; host or cells: Sprague-Dawley rat frontal cortex membrane homogenate
T1 sequence (P19327 1-422): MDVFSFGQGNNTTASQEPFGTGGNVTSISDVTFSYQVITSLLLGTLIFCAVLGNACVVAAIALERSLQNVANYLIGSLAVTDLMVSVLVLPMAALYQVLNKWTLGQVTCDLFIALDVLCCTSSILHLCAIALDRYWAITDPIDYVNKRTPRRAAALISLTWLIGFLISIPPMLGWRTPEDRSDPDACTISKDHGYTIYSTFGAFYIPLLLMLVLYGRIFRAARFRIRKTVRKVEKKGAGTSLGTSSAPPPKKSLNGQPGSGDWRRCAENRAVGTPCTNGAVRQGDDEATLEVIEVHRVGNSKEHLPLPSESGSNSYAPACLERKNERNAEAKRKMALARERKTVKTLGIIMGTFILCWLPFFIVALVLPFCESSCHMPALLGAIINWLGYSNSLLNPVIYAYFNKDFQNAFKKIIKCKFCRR
Assay: In vitro 5-HT1A radioligand binding ([³H]-8-OH-DPAT)
Parameters: species or system Sprague-Dawley rat
Settings: rat frontal cortex homogenate; radioligand [³H]-8-OH-DPAT; 37°C for 15 min; results expressed as pIC₅₀; read-out: 5-HT1A Binding Affinity Rat Brain cortex (converted)
Experimental: Radioligand binding studies of the 5-HT1A recognition sites are conducted in the following manner.
Radioactivity is measured following extraction into Aquasol-Z (NEN) at an efficiency of 45-50%.

IC50: 0.479 µM
Compound: CC1(C)CC(=O)OC(=NCCCCN2CCN(c3ncccn3)CC2)N1 [Compound B, 2-[4-[4-(2-pyrimidinyl)-1-piperazinyl]butylimino]-tetrahydro-4,4-dimethyl-6H-1,3-oxazine-6-one]
